This note sets out measurements from PubChem BioAssay AID1996.

≈ marks a conversion by molar mass, not a printed value. A value given as a limit tells only on which side of the number the result lay.

For the series the following is noted: buffer; pH 7.4; 200.0 µM.
Usually kinetic solubility stands for the concentration staying in solution when a stock, usually in DMSO, is diluted into the medium. `Cc1cc(C(=O)NCC(=O)Nc2ccc(F)c(F)c2)c(C)o1` displayed a solubility (kinetic) of 11.3 µg/mL (≈ 36.7 µM). The value for `CC(=O)Nc1ccc(C(=O)CN2C(=O)NC3(CCCc4ccccc43)C2=O)c(F)c1` (configuration not stated) was 53 µg/mL (≈ 129 µM); that for `N#CCSc1nc2ccccc2o1` was 14.3 µg/mL (≈ 75.2 µM); that for `COC(=O)c1cccc(NC(=O)CCc2c(C)noc2C)c1` was above 45.3 µg/mL. The same measure for `Cc1ccsc1C(=O)NCCc1c[nH]c2ccccc12`: above 42.7 µg/mL; for `CC(NC(=O)c1cc2cc([N+](=O)[O-])ccc2oc1=O)C1CCCO1` (configuration not stated): 36.5 µg/mL (≈ 110 µM). As to `O=c1cnnc(Nc2ccccc2)[nH]1`, the kinetic solubility was above 28.2 µg/mL. The same measure for `O=C(NCc1ccncc1)c1cc2ccccc2nc1Cl`: 43.4 µg/mL (≈ 146 µM); for `CCOC(=O)/C(C#N)=C/C=C1\C=Cc2ccccc2N1CC`: 0.7 µg/mL (≈ 2.38 µM); for `C/C(=N\Nc1nc(C)cc(C)n1)c1ccc(N2CCOCC2)cc1`: above 48.8 µg/mL.

In turn, `O=C(O)c1cc(NS(=O)(=O)c2ccc(F)cc2)cc(NS(=O)(=O)c2ccc(F)cc2)c1` showed a solubility (kinetic) above 70.3 µg/mL.

The molecule `CCC(=O)c1cc(F)ccc1OCC(=O)Nc1ccc2c(c1)OCCO2` displayed a solubility (kinetic) of 6.2 µg/mL (≈ 17.3 µM). The value for `S=C(NCCCc1ccccc1)Nc1ccc(Br)cc1` was 4.5 µg/mL (≈ 12.9 µM); that for `Cc1ccc(OCc2ccccc2Br)c([N+](=O)[O-])n1` was 1.7 µg/mL (≈ 5.26 µM); that for `CCN(c1ccc(NC(=O)CSc2ccc3c(c2)OCCO3)cc1)C(C)C` was 4.4 µg/mL (≈ 11.4 µM). In the case of `Cc1cc(C(=O)Nc2cccc(NC(=O)c3ccco3)c2)ccc1[N+](=O)[O-]`, the solubility (kinetic) came to 0.5 µg/mL (≈ 1.37 µM). As for `Cc1ccc(-c2c(NCCc3ccccc3)c(=O)c2=O)cc1`, the solubility (kinetic) is below 0.6 µg/mL. The value for `Cc1cccnc1NC(=O)C(C)N1C(=O)c2ccccc2C1=O` (configuration not stated) was above 46.4 µg/mL; that for `CN(Cc1ccccc1)S(=O)(=O)c1ccc(N2CCOCC2)nc1` was 2.5 µg/mL (≈ 7.2 µM); that for `COc1cccc(CNC(=O)COC(=O)/C=C/c2ccc(SC)cc2)c1` was 3.8 µg/mL (≈ 10.2 µM).

Take `Fc1ccc(N2CCN(c3cnc4ccccc4n3)CC2)cc1`: the kinetic solubility came out at 1 µg/mL (≈ 3.24 µM). The same measure for `COc1cc2[nH]c(=S)n(Cc3cccs3)c(=O)c2cc1OC`: below 0.4 µg/mL; for `Nc1ccc(S(=O)(=O)N2CCc3ccccc32)cc1`: above 41.2 µg/mL. The molecule `CCc1ccc(N2CC(C(=O)OCC(=O)NC3CC3)CC2=O)cc1` (configuration not stated) had a solubility (kinetic) above 49.6 µg/mL.

For `O=C(COC(=O)c1ccc([N+](=O)[O-])cc1)Nc1ccccc1C(=O)NC1CC1`, the kinetic solubility turned out to be 8.5 µg/mL (≈ 22.2 µM).

As to `C=CCNC(=O)N1CCCC(N2CCN(c3ccccc3OC)CC2)C1` (configuration not stated), the kinetic solubility is above 53.8 µg/mL. The same measure for `CC(C)[C@H](NC(=O)c1ccccc1F)C(=O)OCC(=O)NC1CC1`: 34.3 µg/mL (≈ 102 µM); for `O=C(NCc1ccc(Cl)c(Cl)c1)c1ccc2c(c1)OCO2`: 1.5 µg/mL (≈ 4.63 µM); for `NC(=S)N(c1ccccc1)c1ccccc1`: above 34.2 µg/mL.

`CN(C(=O)C1CCCCN1S(=O)(=O)c1ccccc1)c1ccccc1` (configuration not stated): the kinetic solubility was above 53.8 µg/mL. The value for `Cn1c(N)c(C(=O)CSc2nnc(C3CC3)n2-c2ccccc2)c(=O)[nH]c1=O` was above 59.8 µg/mL. The same measure for `CCOc1ncccc1C(=O)OCC(=O)c1ccccc1`: 39.9 µg/mL (≈ 140 µM). The same measure for `O=C(COc1ccccc1Cl)Nc1ccc2c(c1)OCO2`: 1.2 µg/mL (≈ 3.93 µM); for `NC(=O)C1CCN(C(=O)CNC(=O)c2ccccc2)CC1`: above 43.4 µg/mL.

For `CC(C)(C)Nc1c(-c2cccs2)nc2ccccn12`, the kinetic solubility came to 33.4 µg/mL (≈ 123 µM).

In the case of `CCN1CCN(C(=O)c2cc3cc(F)ccc3[nH]2)CC1`, the kinetic solubility amounted to 36.4 µg/mL (≈ 132 µM). This solubility kinetic and that of the molecule before are within 1.5-fold of each other.

`COc1cc(C(=O)Nc2cccc(C(C)=O)c2)cc(OC)c1OC` displayed a solubility (kinetic) above 49.4 µg/mL. The value for `CC1(C)CC(=O)C2=C(C1)Nc1ccccc1[S@]2=O` was above 39.2 µg/mL; that for `CCN(CC(=O)NC1CCS(=O)(=O)C1)S(=O)(=O)c1ccccc1Cl` (configuration not stated) was above 59.2 µg/mL. `COCC(C)NC(=O)COc1nncc2ccccc12` (configuration not stated): the kinetic solubility is above 41.3 µg/mL. The same measure for `O=S(=O)(Nc1ccc(Cl)cn1)c1cccs1`: above 41.2 µg/mL. The value for `C=CCc1c(C)nc(SCc2ccccc2)[nH]c1=O` was 10.4 µg/mL (≈ 38.2 µM). The same measure for `Cn1c2ccc(F)cc2c2ncn(CC3CCCO3)c(=O)c21` (configuration not stated): 4 µg/mL (≈ 13.3 µM); for `O=C(Nc1nc2ccsc2c(=O)s1)c1ccco1`: 7.3 µg/mL (≈ 26.2 µM). `Cc1cc(Nc2ccc(C(=O)O)cc2)nc(N)n1` registered a solubility (kinetic) of 28 µg/mL (≈ 115 µM). The same measure for `O=C1NC(=S)NC(=O)C1=Cc1ccc(Br)s1`: 44.3 µg/mL (≈ 140 µM); for `Cc1ccc(CN2C(=O)C3CCCN3c3ncccc32)cc1` (configuration not stated): 33.3 µg/mL (≈ 114 µM). As for `CC(C(=O)N1CCCC1)N1CCN(S(=O)(=O)c2ccccc2)CC1` (configuration not stated), the solubility (kinetic) was 47.1 µg/mL (≈ 134 µM). The same measure for `COc1cccc(Nc2nc(N)nc(CCl)n2)c1`: above 39.9 µg/mL; for `CCN(CC)c1ccc(NC(=O)CCCCC(=O)Nc2ccc(N(CC)CC)cc2)cc1`: 0.4 µg/mL (≈ 0.912 µM). The value for `COc1ccc(NS(=O)(=O)c2cccc(C(=O)Nc3ccccc3C(=O)O)c2)cc1` was above 64 µg/mL.

Regarding `Cc1cccc(C)c1NC(=S)NC(=O)c1ccc(Br)o1`, the kinetic solubility amounted to 4.1 µg/mL (≈ 11.6 µM). The same measure for `COc1ccc(/C=C(\C#N)C(=O)c2cccn2C)cc1`: 5 µg/mL (≈ 18.8 µM); for `CCOc1ccc(S(=O)(=O)N2CCN(C(=O)COc3ccc(Br)cc3)CC2)cc1`: 2.3 µg/mL (≈ 4.76 µM). The same measure for `CCC(C)N1C(=O)CN(C2CCCCCC2)C(=O)C1c1ccccc1F` (configuration not stated): 19.6 µg/mL (≈ 54.4 µM). The value for `CCC(=O)N(Cc1cc2ccccc2[nH]c1=O)c1ccc(OC)cc1` was above 50.5 µg/mL; that for `O=C(Cc1ccc(F)cc1)NCC1CCCO1` (configuration not stated) was above 35.6 µg/mL; that for `CCCC(=O)c1c[nH]c(C(=O)N2CCOCC2)c1` was above 37.5 µg/mL. In turn, `Cc1cccc(N2C(=O)c3ccccc3C2=O)n1` had a solubility (kinetic) above 35.7 µg/mL.

Consider `COc1ccc(NC(=O)C#Cc2ccccc2)cc1`, for which the kinetic solubility amounted to 5.2 µg/mL (≈ 20.7 µM).

As to `CN1C2CCC1CC(NC(=O)c1cc(Cl)cc3[nH]cnc13)C2` (configuration not stated), the solubility (kinetic) was 40.7 µg/mL (≈ 128 µM). As for `CC(C)CCNc1nc(N)c([N+](=O)[O-])c(N2CCCCCC2)n1`, the kinetic solubility turned out to be 0.5 µg/mL (≈ 1.55 µM). Molecule `COc1ccc(NC(=O)O/N=C/c2ccccc2)cc1` gave a solubility (kinetic) of 5 µg/mL (≈ 18.5 µM). The same measure for `O=C(COc1ccc(C(=O)c2ccc(F)cc2)cc1)Nc1cccc(S(=O)(=O)N2CCOCC2)c1`: 4.2 µg/mL (≈ 8.42 µM). Turning to `O=C(COc1ccc(C(=O)c2ccccc2)cc1)Nc1cccnc1`, the kinetic solubility is above 49.9 µg/mL. Turning to `CCc1c(C)sc(NC(=S)Nc2cccnc2)c1C(=O)OC`, the kinetic solubility was above 50.3 µg/mL. `COC(=O)CSc1nc2ccccc2c(=O)n1Cc1ccccc1` gave a kinetic solubility of 0.7 µg/mL (≈ 2.06 µM).

As to `COc1ccccc1C1CCN(Cc2cccc3ccccc23)CC1`, the kinetic solubility was below 0.7 µg/mL.

For `Cc1cc(NC(=O)C2CC(=O)N(c3cccc(C)c3C)C2)no1` (configuration not stated), the kinetic solubility was above 47 µg/mL. `CCCCn1c(N)c(N(C)C(=O)C2CCCC2)c(=O)[nH]c1=O` displayed a solubility (kinetic) above 46.3 µg/mL.

Consider `Cc1cccc(NC(=O)c2ccc3nccnc3c2)n1`, for which the solubility (kinetic) was above 39.6 µg/mL.

Molecule `COC(=O)Cn1c2nc3ccccc3nc2c2cccc(C)c21` yielded a kinetic solubility of 0.2 µg/mL (≈ 0.655 µM). The value for `COc1ccc(CCNC(=O)C2CCC(=O)N2S(=O)(=O)c2ccc(C)cc2)cc1` (configuration not stated) was 61.2 µg/mL (≈ 147 µM); that for `COc1ccc(N/C=C\C(=O)c2ccc3ccccc3c2)cc1` was below 0.6 µg/mL. The value for `Nc1cccc(S(=O)(=O)Nc2ccccc2)c1` was above 37.2 µg/mL; that for `COC(=O)NC1(C(F)(F)F)C(=O)Nc2c1c(=O)n(C)c(=O)n2C` (configuration not stated) was 47.3 µg/mL (≈ 141 µM); that for `COc1cc(/C=C/C(=O)OCC(=O)NC(=O)C2COc3ccccc3O2)ccc1OC(F)F` (configuration not stated) was 15.4 µg/mL (≈ 33.2 µM). The value for `Cc1nnc(SCC(=O)NCC2CCCO2)n1Cc1ccccc1` (configuration not stated) was above 52 µg/mL; that for `COc1ccccc1CC1CC(=O)N(c2ccccc2)C1=O` (configuration not stated) was above 44.3 µg/mL.

`Cc1ccc(NC(=O)CSc2nccn2Cc2ccco2)c(C)c1` had a kinetic solubility of 46.8 µg/mL (≈ 137 µM). The value for `CCCNC(=O)c1ccc(COc2ccc(C)cc2)o1` was above 41 µg/mL. As for `Cn1ccsc1=NC(=O)c1ccc(Cl)c([N+](=O)[O-])c1`, the solubility (kinetic) was found to be 0.5 µg/mL (≈ 1.68 µM). The value for `COc1ccc(C(=O)CNc2cccc(F)c2)cc1` was 4.3 µg/mL (≈ 16.6 µM); that for `O=S(=O)(c1cnc(Cl)c(Cl)c1)N1CCN(c2ncccn2)CC1` was 0.4 µg/mL (≈ 1.07 µM); that for `CN1CCC(CNC(=O)Nc2ccccc2)(c2ccccc2)CC1` was above 48.5 µg/mL. The same measure for `COc1ccc(C(=O)N/N=C/c2cccnc2)cc1`: above 38.3 µg/mL. The same measure for `O=C(CSc1ncnc2sccc12)N1CCCCC1`: above 44 µg/mL.

`O=C(COc1ccc(Cl)cc1[N+](=O)[O-])N1CCCCC1`: the solubility (kinetic) is above 44.8 µg/mL.

With `COc1ccc(CNC(=O)c2cncc(Br)c2)cc1`, the kinetic solubility came out at 45.8 µg/mL (≈ 143 µM). The same measure for `N#Cc1ccccc1NC(=O)COC(=O)/C=C/c1ccc(S(=O)(=O)N2CCOCC2)cc1`: 5.7 µg/mL (≈ 12.5 µM); for `O=C(/C=C/c1cccnc1)c1cc(F)ccc1O`: 19.8 µg/mL (≈ 81.4 µM); for `O=C(O)c1cc([N+](=O)[O-])ccc1C(=O)Nc1cccc([N+](=O)[O-])c1`: above 49.7 µg/mL. For the molecule `Cc1ccc2nc(SCC(=O)Nc3ncccn3)[nH]c2c1`, the kinetic solubility was above 44.9 µg/mL.

In the case of `Cc1ccccc1NC(=O)N1CCc2ccccc2C1`, the kinetic solubility was above 40 µg/mL. In the case of `CCN(CC)CCC#CC1(O)c2ccccc2-c2ccccc21`, the kinetic solubility was above 45.8 µg/mL.

Turning to `COc1cccc(C(=O)N2CCC(C(=O)N3CCN(C)CC3)CC2)c1`, the solubility (kinetic) was above 51.8 µg/mL.

For `Br.N=C(N)SCCc1cccc(CCSC(=N)N)c1`, the kinetic solubility is above 66.6 µg/mL. The value for `CSc1nc(NCC(C)O)c2c3c(sc2n1)CN(C)CC3` (configuration not stated) was 44.7 µg/mL (≈ 138 µM); that for `CC(=O)c1ccc(NC(=O)CN2CCCCCC2)cc1` was above 41.2 µg/mL; that for `Cc1c(C)n(CCc2c[nH]c3ccccc23)ccc1=O` was 38.5 µg/mL (≈ 145 µM).

Take `Cl.Clc1ccc(-c2ccc(CNCC3CCCO3)o2)cc1` (configuration not stated): the solubility (kinetic) is above 49.2 µg/mL. The same measure for `O=C(O)c1ncsc1-c1ccccc1`: 29.1 µg/mL (≈ 142 µM).
